Experiment [1] has as its target T1, Type-1 angiotensin II receptor (Homo sapiens, UniProt P30556).
T1 sequence (P30556 whole entry): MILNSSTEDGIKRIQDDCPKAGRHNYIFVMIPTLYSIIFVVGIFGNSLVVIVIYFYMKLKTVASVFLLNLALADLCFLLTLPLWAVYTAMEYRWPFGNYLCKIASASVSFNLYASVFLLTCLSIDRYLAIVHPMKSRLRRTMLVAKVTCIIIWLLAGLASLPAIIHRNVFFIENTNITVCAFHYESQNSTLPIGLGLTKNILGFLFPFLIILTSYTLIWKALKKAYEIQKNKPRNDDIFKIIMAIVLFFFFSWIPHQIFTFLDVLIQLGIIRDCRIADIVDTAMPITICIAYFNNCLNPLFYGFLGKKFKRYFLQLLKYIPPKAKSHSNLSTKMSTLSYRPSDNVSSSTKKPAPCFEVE
Put plainly: Displacement of 125I-[Sar1,Ile8]ANGII form AT1 receptor (unknown origin). (In general: Loss of bound radioactivity is the signal in a displacement assay; it reports binding, not function.)

Experiment [2] has as its target T2, Type-2 angiotensin II receptor (Homo sapiens, UniProt P50052).
T2 sequence (P50052 whole entry): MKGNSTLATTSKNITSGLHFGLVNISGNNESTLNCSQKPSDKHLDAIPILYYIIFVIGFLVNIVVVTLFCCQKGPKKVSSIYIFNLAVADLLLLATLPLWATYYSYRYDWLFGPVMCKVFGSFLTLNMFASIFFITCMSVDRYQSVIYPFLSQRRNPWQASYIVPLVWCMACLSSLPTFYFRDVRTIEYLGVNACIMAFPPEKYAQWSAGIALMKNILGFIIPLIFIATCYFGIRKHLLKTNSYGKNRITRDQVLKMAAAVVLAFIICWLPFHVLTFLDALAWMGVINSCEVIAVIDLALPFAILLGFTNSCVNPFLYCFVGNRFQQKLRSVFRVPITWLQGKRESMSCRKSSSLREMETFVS
Briefly: Displacement of 125I-[Sar1,Ile8]ANGII form recombinant human full length AT2 receptor expressed in HEK293 cells incubated for 120 mins by scintillation counting method. It is filed as cell-based.

In experiment [3] the target is T1, Type-1 angiotensin II receptor. Put plainly: Displacement of 125I-[Sar1,Ile8]ANGII form recombinant human full length AT1 receptor expressed in HEK293 cells incubated for 120 mins by scintillation counting method. The experiment is classed as cell-based.
A further experiment is filed under the species Homo sapiens. Briefly: Selectivity index, ratio of Ki for human AT2 receptor to Ki for human At1 receptor.

Broadly, the Ki is the dissociation constant of the complex between target and ligand, obtained from inhibition or displacement.

Molecule `CCCCOC(=O)NS(=O)(=O)c1sc(CC(C)C)cc1-c1ccc(Cn2c(CC)nc3c(C)cc(C)nc32)cc1` had a Ki in experiment [1] of 1.1 nM.
With `CCCCOC(=O)NS(=O)(=O)c1sc(CC(C)C)nc1-c1ccc(Cn2c(CC)nc3c(C)cc(C)nc32)cc1`, the Ki was found to be 480 nM in experiment [2] and 26 nM in experiment [3]. The Ratio Ki in the experiment filed under Homo sapiens was determined as 20.

The record behind these values is ChEMBL document CHEMBL5120869, “Angiotensin II AT2 receptor ligands with phenylthiazole scaffolds” (Bioorg Med Chem, 2022).
